Where a SMILES comes first, the peptide text is derived from it. [ ]: non-standard residue; d: D form. The star is where a group is joined. Palmitoyl = CCCCCCCCCCCCCCCC(=O)*; Myristoyl = CCCCCCCCCCCCCC(=O)*; Nle = CCCC[C@H](N)C(=O)O; Dap = NC[C@H](N)C(=O)O
What was measured:
[1] = target: T1, rat PrRP receptor (GPR10) in RC-4B/C cells (Rattus norvegicus, UniProt Q64121); experiment: Competitive binding to rat pituitary RC-4B/C cells; conditions: ^125I-rat PrRP31, RC-4B/C cells
T1 construct: host or cells: RC-4B/C rat pituitary cell line
T1 sequence (Q64121 1-370): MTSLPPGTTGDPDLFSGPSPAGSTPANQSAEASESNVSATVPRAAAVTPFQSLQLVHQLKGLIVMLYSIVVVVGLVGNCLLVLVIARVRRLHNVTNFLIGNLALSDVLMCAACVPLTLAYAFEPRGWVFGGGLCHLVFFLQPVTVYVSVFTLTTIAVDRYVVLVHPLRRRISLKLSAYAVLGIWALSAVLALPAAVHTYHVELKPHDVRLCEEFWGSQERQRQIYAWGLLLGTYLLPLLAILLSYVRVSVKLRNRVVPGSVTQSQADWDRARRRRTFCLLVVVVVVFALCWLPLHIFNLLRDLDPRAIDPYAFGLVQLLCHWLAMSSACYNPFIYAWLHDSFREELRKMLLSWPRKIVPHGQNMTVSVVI

[2] = system: Fos immunoreactivity in Arc, PVN and NTS; experiment: Fos immunohistochemistry after SC administration; type: in vivo, mouse; conditions: 90 minutes after SC 5 mg/kg, fasted mice
Procedure: For Fos immunohistochemical processing, overnight fasted mice (n=5 mice/group) were treated SC with saline, [Dpr^1]PrRP31, [Dpr(oct)^1]PrRP31, [Dpr(myr)^1]PrRP31 or [Dpr(palm)^1]PrRP31 (dose 5 mg/kg). Ninety minutes after SC injection, the mice were deeply anesthetized with pentobarbital (50 mg/kg, IP) and perfused transcardially with 0.1 M phosphate buffer (PB, pH 7.4) containing 4% paraformaldehyde, 0.1% glutaraldehyde, and 10% picric acid (w/w). Then the brains were removed, postfixed in the same fixative overnight at 4° C., and infiltrated with 30% sucrose in 0.1 M PB for 48 h at 4° C. Before sectioning, the brains were rapidly (20 sec) frozen in cold isopentane (−30/−40° C.) and placed into a Reichert cryocut device adjusted to −16° C. for 1 h. 30 μm coronal sections were cut from the brains and collected as free floating in cold (4° C.) PB. […]
An identical set of mice was used for determination of Fos immunoreactivity in NTS, PVN, and Arc. […] Quantitative assessment was performed from the images captured with a Canon digital camera (PowerShot S40) and Leica DMLS light microscope in a computer screen obtained from 5-6 brain sections per animal. […] The counting of Fos-positive neurons was done under blinded conditions (the counted slides from each animal were analyzed independently and randomly and encoded by other person).

fasted C57BL/6 mice = experiment: Food intake in fasted mice after SC administration; type: in vivo, mouse; conditions: for food intake in fasted mice (in words): SC (peripheral) administration; for food intake / % control: SC administration; for % control: food intake vs saline
How it was run: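 Male C57BL/6 mice, food-deprived 17 h, received saline, PrRP or lipidated analogs either SC at 1-10 mg/kg or ICV into the third ventricle at 4 nmol/mouse.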

Row | Compound | % of PrRP31 binding [1] [%] | Neural activity, Fos immunoreactivity [2] | food intake in fasted mice (in words) (fasted C57BL/6 mice) | dose dependence of the lowering of food intake (fasted C57BL/6 mice; SC administration, 1, 2, 5 and 10 mg/kg, FIG. 5 and 6) | food intake (fasted C57BL/6 mice; 45 minutes, 10 mg/kg) [g] | % control (fasted C57BL/6 mice; 45 minutes, 10 mg/kg) [%] | food intake (fasted C57BL/6 mice; 300 minutes, 10 mg/kg) [g] | % control (fasted C57BL/6 mice; 300 minutes, 10 mg/kg) [%] | food intake (fasted C57BL/6 mice; 45 minutes, 5 mg/kg) [g] | % control (fasted C57BL/6 mice; 45 minutes, 5 mg/kg) [%] | food intake (fasted C57BL/6 mice; 300 minutes, 5 mg/kg) [g] | % control (fasted C57BL/6 mice; 300 minutes, 5 mg/kg) [%]
1 | CCCCCCCCCCCCCC(=O)NC[C@H](N)C(=O)N[C@@H](CCCNC(=N)N)C(=O)N[C@@H](C)C(=O)N[C@@H](Cc1c[nH]cn1)C(=O)N[C@@H](CCC(N)=O)C(=O)N[C@@H](Cc1c[nH]cn1)C(=O)N[C@@H](CO)C(=O)N[C@@H](CCCC)C(=O)N[C@@H](CCC(=O)O)C(=O)N[C@H](C(=O)N[C@@H](CCCNC(=N)N)C(=O)N[C@H](C(=O)N1CCC[C@H]1C(=O)N[C@@H](CC(=O)O)C(=O)N[C@H](C(=O)N[C@@H](CC(N)=O)C(=O)N1CCC[C@H]1C(=O)N[C@@H](C)C(=O)N[C@@H](Cc1c[nH]c2ccccc12)C(=O)N[C@@H](Cc1ccc(O)cc1)C(=O)N[C@H](C(=O)NCC(=O)N[C@@H](CCCNC(=N)N)C(=O)NCC(=O)N[C@H](C(=O)N[C@@H](CCCNC(=N)N)C(=O)N1CCC[C@H]1C(=O)N[C@H](C(=O)NCC(=O)N[C@@H](CCCNC(=N)N)C(=O)N[C@@H](Cc1ccccc1)C(N)=O)C(C)C)[C@@H](C)CC)[C@@H](C)O)[C@@H](C)CC)[C@@H](C)O)[C@@H](C)O [Analog 5] (H-[Dap](Myristoyl)RAHQHS[Nle]ETRTPDINPAWYTGRGIRPVGRF-NH2) | 601 | significantly increased | significantly decreased food intake | dose dependent | 0.05 | 25 | 0.18 | 21 |  |  |  | 
2 | CCCCCCCCCCCCCCCC(=O)NC[C@H](N)C(=O)N[C@@H](CCCNC(=N)N)C(=O)N[C@@H](C)C(=O)N[C@@H](Cc1c[nH]cn1)C(=O)N[C@@H](CCC(N)=O)C(=O)N[C@@H](Cc1c[nH]cn1)C(=O)N[C@@H](CO)C(=O)N[C@@H](CCCC)C(=O)N[C@@H](CCC(=O)O)C(=O)N[C@H](C(=O)N[C@@H](CCCNC(=N)N)C(=O)N[C@H](C(=O)N1CCC[C@H]1C(=O)N[C@@H](CC(=O)O)C(=O)N[C@H](C(=O)N[C@@H](CC(N)=O)C(=O)N1CCC[C@H]1C(=O)N[C@@H](C)C(=O)N[C@@H](Cc1c[nH]c2ccccc12)C(=O)N[C@@H](Cc1ccc(O)cc1)C(=O)N[C@H](C(=O)NCC(=O)N[C@@H](CCCNC(=N)N)C(=O)NCC(=O)N[C@H](C(=O)N[C@@H](CCCNC(=N)N)C(=O)N1CCC[C@H]1C(=O)N[C@H](C(=O)NCC(=O)N[C@@H](CCCNC(=N)N)C(=O)N[C@@H](Cc1ccccc1)C(N)=O)C(C)C)[C@@H](C)CC)[C@@H](C)O)[C@@H](C)CC)[C@@H](C)O)[C@@H](C)O [Analog 6] (H-[Dap](Palmitoyl)RAHQHS[Nle]ETRTPDINPAWYTGRGIRPVGRF-NH2) | 1072 | significantly increased | significantly decreased food intake |  |  |  |  |  | 0 | 0 | 0.14 | 14

From patent publication US9937235B2, “Lipidated peptides as anti-obesity agents” (USTAV ORGANICKE CHEMIE A BIOCHEMIE AKADEMIE VED CR, V.V.I, priority 2012, dated 2018)
